We go through 17 molecules from ChEMBL document CHEMBL2169865, “Selective class I phosphoinositide 3-kinase inhibitors: optimization of a series of pyridyltriazines leading to the identification of a clinical candidate, AMG 511” (J Med Chem, 2012).

A short description of data set [1]: in vitro. To be noted: rat, liver microsomes.
Data set [2] is described as follows: in vitro. To be noted: human, liver microsomes.
Data set [3] can be described thus: in vivo. To be noted: Sprague-Dawley, rat, iv, 1 mg/kg.
A short description of data set [4]: in vivo. To be noted: Sprague-Dawley, rat, po, 2 mg/kg.
Data set [5] can be described thus: in vivo. To be noted: Sprague-Dawley, rat, iv, 1 mg/kg. The source holds these as a separate data set.
A short description of data set [6]: in vivo. To be noted: Sprague-Dawley, rat, iv, 1 mg/kg. This is another data set of the same source.
Data set [7] can be described thus: in vivo. To be noted: Sprague-Dawley, rat, plasma, po, 2 mg/kg.
The subject of data set [8] is Hepatocyte. To be noted: rat, hepatocytes, 4 h, 3 µM.
The test system of data set [9] is Hepatocyte. To be noted: rat, hepatocytes, 4 h, 3 µM. The source holds these as a separate data set.

In the case of `COc1ncc(Nc2ncc(CN3CCN(S(C)(=O)=O)C[C@H]3C)cc2-c2nc(C)nc(N)n2)cc1F`, the microsomal CLint at 0.5 h, 1 µM is 120 µL/min/mg in “in vitro [1]” and 29 µL/min/mg in the data set “in vitro [2]”.

Consider `COc1ncc(Nc2ncc(CN3CCN(S(C)(=O)=O)C[C@@H]3C)cc2-c2nc(C)nc(N)n2)cc1F`, for which the results for the microsomal CLint at 0.5 h, 1 µM in the data set “in vitro [1]” and in the data set “in vitro [2]” were 54 µL/min/mg and 41 µL/min/mg, respectively. Moreover, the Vd in “in vivo [3]” came out at 3.2 L/kg. Also, the bioavailability in the data set “in vivo [4]” is 60%. The MRT in the data set “in vivo [5]” came out at 3.2 h. In the data set “in vivo [6]”, this molecule showed a clearance of 16.7 mL/min/kg. The same molecule registered an AUC in “in vivo [7]” of 2.3 µM·h.

As for `COc1ncc(Nc2ncc([C@@H](N3CCN(S(C)(=O)=O)CC3)C(F)(F)F)cc2-c2nc(C)nc(N)n2)cc1F`, the microsomal CLint at 0.5 h, 1 µM in the data set “in vitro [1]” is 17 µL/min/mg; in “in vitro [2]”, 23 µL/min/mg.

On to `COc1ncc(Nc2ncc([C@H](N3CCN(S(C)(=O)=O)CC3)C(F)(F)F)cc2-c2nc(C)nc(N)n2)cc1F`, for which the microsomal CLint at 0.5 h, 1 µM in “in vitro [1]” turned out to be 22 µL/min/mg; in the data set “in vitro [2]”, 25 µL/min/mg.

In the case of `COc1ncc(Nc2ncc([C@@H](C)N3CCN(S(C)(=O)=O)C[C@H]3C)cc2-c2nc(C)nc(N)n2)cc1F`, the microsomal CLint at 0.5 h, 1 µM in the data set “in vitro [1]” was determined as 113 µL/min/mg; in the data set “in vitro [2]”, 64 µL/min/mg.

Take `COc1ncc(Nc2ncc([C@H](C)N3CCN(S(C)(=O)=O)C[C@H]3C)cc2-c2nc(C)nc(N)n2)cc1F`: the microsomal CLint at 0.5 h, 1 µM in “in vitro [1]” amounted to 174 µL/min/mg; in the data set “in vitro [2]”, 54 µL/min/mg.

Consider `COc1ncc(Nc2ncc([C@@H](C)N3CCN(S(C)(=O)=O)C[C@@H]3C)cc2-c2nc(C)nc(N)n2)cc1F`, for which the microsomal CLint at 0.5 h, 1 µM in “in vitro [1]” turned out to be 69 µL/min/mg; in “in vitro [2]” it was 67 µL/min/mg. Further, the Vd in “in vivo [3]” is 4 L/kg. In addition, the bioavailability in “in vivo [4]” was 49%. Further, the MRT in the data set “in vivo [5]” stood at 3.1 h. For the same molecule, in “in vivo [6]”, the clearance is 21.7 mL/min/kg. Besides, in “in vivo [7]”, the AUC stood at 1.4 µM·h.

Consider `COc1ncc(Nc2ncc([C@H](C)N3CCN(S(C)(=O)=O)C[C@@H]3C)cc2-c2nc(C)nc(N)n2)cc1F`, for which the microsomal CLint at 0.5 h, 1 µM in “in vitro [1]” came out at 128 µL/min/mg; in the data set “in vitro [2]”, 80 µL/min/mg.

In the case of `COc1ncc(Nc2ncc(C(C)(C)N3CCN(S(C)(=O)=O)CC3)cc2-c2nc(C)nc(N)n2)cc1F`, the microsomal CLint at 0.5 h, 1 µM in “in vitro [1]” stood at 58 µL/min/mg; in the data set “in vitro [2]”, 81 µL/min/mg. In the data set “in vivo [3]”, the Vd worked out at 3.5 L/kg. This molecule also yielded a bioavailability in the data set “in vivo [4]” of 24%. Further, the MRT in the data set “in vivo [5]” is 4.9 h. The molecule further gave a clearance in “in vivo [6]” of 11.7 mL/min/kg. The molecule also returned an AUC in the data set “in vivo [7]” of 1.3 µM·h.

Consider `Cc1nc(N)nc(-c2cc(CN3CCN(S(C)(=O)=O)CC3)cnc2Nc2ccc(=O)[nH]c2)n1`, for which, in “in vitro [1]”, the microsomal CLint at 0.5 h, 1 µM was less than 14 µL/min/mg.

`Cc1nc(N)nc(-c2cc(CN3CCN(S(C)(=O)=O)CC3)cnc2Nc2ccc(Cl)nc2)n1`: the microsomal CLint at 0.5 h, 1 µM in the data set “in vitro [1]” is 24 µL/min/mg; in “in vitro [2]”, less than 14 µL/min/mg.

As for `Cc1ccc(Nc2ncc(CN3CCN(S(C)(=O)=O)CC3)cc2-c2nc(C)nc(N)n2)cn1`, the microsomal CLint at 0.5 h, 1 µM in the data set “in vitro [1]” is 22 µL/min/mg; in “in vitro [2]”, less than 14 µL/min/mg.

In the case of `Cc1nc(N)nc(-c2cc(CN3CCN(S(C)(=O)=O)CC3)cnc2Nc2ccc(C(F)(F)F)nc2)n1`, the values for the microsomal CLint at 0.5 h, 1 µM in “in vitro [1]” and in the data set “in vitro [2]” were 22 µL/min/mg and less than 14 µL/min/mg, respectively.

In the case of `COc1ncc(Nc2ncc(CN3CCN(S(C)(=O)=O)CC3)cc2-c2nc(C)nc(N)n2)cn1`, the microsomal CLint at 0.5 h, 1 µM in the data set “in vitro [1]” and in the data set “in vitro [2]” was 14 µL/min/mg in each case.

Turning to `COc1ncc(Nc2ncc(CN3CCN(S(C)(=O)=O)CC3)cc2-c2nc(C)nc(N)n2)cc1F`, the microsomal CLint at 0.5 h, 1 µM in the data set “in vitro [1]” is 30 µL/min/mg; in the data set “in vitro [2]”, less than 14 µL/min/mg. Further, the Drug metabolism entry is listed as “Not Active” in the data set on Hepatocyte [8] and “Active” in the data set with Hepatocyte [9]. Also, the Vd in the data set “in vivo [3]” was determined as 3.3 L/kg. In the data set “in vivo [4]”, this molecule showed a bioavailability of 45%. The same molecule registered an MRT in “in vivo [5]” of 1.7 h. The clearance in the data set “in vivo [6]” is 33.3 mL/min/kg. In addition, the AUC in “in vivo [7]” is 0.95 µM·h.

Regarding `Cc1nc(N)nc(-c2cc(CN3CCN(S(C)(=O)=O)CC3)cnc2Nc2cncc(F)c2)n1`, the microsomal CLint at 0.5 h, 1 µM in “in vitro [1]” was 30 µL/min/mg; in “in vitro [2]” it was less than 14 µL/min/mg.

As to `COc1cncc(Nc2ncc(CN3CCN(S(C)(=O)=O)CC3)cc2-c2nc(C)nc(N)n2)c1`, the intrinsic metabolic clearance (microsomal CLint) at 0.5 h, 1 µM in “in vitro [1]” was found to be 29 µL/min/mg; in “in vitro [2]” it was 14 µL/min/mg.
